Assay results from patent US10336691B2, “Pesticidally active oxime and hydrazone derivatives” (Syngenta Participations AG, priority 2015, dated 2019).

Tests used:
Diabrotica balteata = Diabrotica balteata (corn root worm) maize sprout spray test, L2 larvae; format: in vivo; conditions: 96 h, application rate of 200 ppm, 4 days after infestation, in comparison to untreated samples, read-out: effect in at least one of the two categories (mortality or growth inhibition)
Experimental: Diabrotica balteata (Corn Root Worm)
Maize sprouts, placed on an agar layer in 24-well microtiter plates were treated with aqueous test solutions prepared from 10,000 ppm DMSO stock solutions by spraying. After drying, the plates were infested with L2 larvae (6 to 10 per well). The samples were assessed for mortality and growth inhibition in comparison to untreated samples 4 days after infestation.

Spodoptera littoralis = Spodoptera littoralis (Egyptian cotton leaf worm) cotton leaf disc spray test, L1 larvae; format: in vivo; conditions: foliar, 72 h, application rate of 200 ppm, 3 days after infestation, in comparison to untreated samples, read-out: control (at least one of mortality, anti-feedant effect, and growth inhibition)
Experimental: Spodoptera littoralis (Egyptian Cotton Leaf Worm)
Cotton leaf discs were placed on agar in 24-well microtiter plates and sprayed with aqueous test solutions prepared from 10,000 ppm DMSO stock solutions. After drying, the leaf discs were infested with five L1 larvae. The samples were assessed for mortality, anti-feedant effect, and growth inhibition in comparison to untreated samples 3 days after infestation. Control of Spodoptera littoralis by a test sample is when at least one of mortality, anti-feedant effect, and growth inhibition is higher than the untreated sample.

Plutella xylostella = Plutella xylostella (diamond back moth) artificial diet test, L2 larvae; format: in vivo; conditions: 120 h, application rate of 200 ppm, 5 days after infestation, in comparison to untreated samples, read-out: effect in at least one of the two categories (mortality or growth inhibition)
Experimental: Plutella xylostella (Diamond Back Moth)
24-well microtiter plates with artificial diet were treated with aqueous test solutions prepared from 10,000 ppm DMSO stock solutions by pipetting. After drying, the plates were infested with L2 larvae (10 to 15 per well). The samples were assessed for mortality and growth inhibition in comparison to untreated samples 5 days after infestation.

Row | Structure (SMILES) | melting point | percent effect (mortality or growth inhibition) at 200 ppm (Diabrotica balteata) | mortality at 200 ppm (Spodoptera littoralis) | percent effect (mortality or growth inhibition) at 200 ppm (Plutella xylostella)
1 | C/C(=N\Nc1ccc(/C=N/NC(=O)Nc2c(C)cccc2C)cc1)c1ccccc1OC(F)(F)F | 215 to 224 °C |  |  | 
2 | C/C(=N\Nc1ccc(/C=N/NC(=S)Nc2ccccc2C(C)C)cc1)c1ccc(C(F)(F)F)cc1 [Compound 20, 1-(2-isopropylphenyl)-3-[(E)-[4-[(2E)-2-[1-[4-(trifluoromethyl)phenyl]ethylidene] hydrazino]phenyl]methyleneamino] thiourea] |  | ≥ 80% | ≥ 80% | ≥ 80%
3 | CC/C(=N\Nc1ccc(/C=N/NC(=S)Nc2ccccc2C(C)C)cc1)c1ccc(C(F)(F)F)cc1 [Compound 26, 1-(2-isopropylphenyl)-3-[(E)-[4-[(2E)-2-[1-[4-(trifluoromethyl)phenyl]propylidene] hydrazino]phenyl]methyleneamino] thiourea] |  | ≥ 80% | ≥ 80% | ≥ 80%
4 | CC(C)c1ccccc1NC(=O)N/N=C/c1ccc(O/N=C2\CCc3cc(OC(F)(F)F)ccc32)cc1 [Compound 4, 1-(2-isopropylphenyl)-3-[[4-[[5-(trifluoromethoxy)indan-1-ylidene]amino]oxyphenyl]methylene-amino]urea] |  | ≥ 80% | ≥ 80% | ≥ 80%
5 | C/C(=N\Oc1ccc(/C=N/NC(=S)Nc2c(C)cccc2C)cc1)c1ccc(OC(F)(F)F)cc1 [Compound 10, 1-(2,6-dimethylphenyl)-3-[[4-[1-[4-(trifluoromethoxy)phenyl]ethylidene-amino]oxyphenyl]methylene-amino]thiourea] |  | ≥ 80% | ≥ 80% | ≥ 80%
6 | C/C(=N\Nc1ccc(/C=N/NC(=S)Nc2c(C)cccc2C)cc1)c1ccc(OC(F)(F)F)cc1 [Compound 3, 1-(2,6-dimethylphenyl)-3-[[4-[2-[1-[4-(trifluoromethoxy)phenyl]ethylidene] hydrazino]phenyl]methyleneamino] thiourea] |  | ≥ 80% | ≥ 80% | ≥ 80%
7 | Cc1cccc(C)c1NC(=S)N/N=C/c1ccc(N/N=C2\CCc3cc(OC(F)(F)F)ccc32)cc1 [Compound 11, 1-(2,6-dimethylphenyl)-3-[[4-[2-[5-(trifluoromethoxy)indan-1-ylidene]hydrazino]phenyl]methylene-amino]thiourea] |  | ≥ 80% | ≥ 80% | ≥ 80%
